Holding throughout (format): in vivo, adult male Wistar rats
Series [1] concerns chronic hypoxia-induced pulmonary arterial hypertension in rats. As to conditions: for PAP: mean ± SEM; for RV/LV + S: right ventricular hypertrophy index; for Muscularization: distal pulmonary arteries. As for the experimental part:
(§1) The objective of the pharmacological investigation was to characterize the effect of orally administered Roflumilast at 0.5 mg kg^−1 d^−1 and 1.5 mg kg^−1 d^−1 on the increase in mean PAP and RV/LV+S ratio as well as distal arteriolar muscularization triggered by chronic hypoxia or monocrotalin (MCT) in rats. Hypoxia- or MCT-induced pulmonary hypertension in rats represent widely accepted animal models to study the potential of investigative drugs to reverse chronic pulmonary hypertension based on pulmonary vascular remodelling. In the MCT setting Roflumilast was administered both in preventive and curative paradigms.
(§2) Experiments were performed with adult male Wistar rats (200-250 g) according to institutional guidelines abiding to national and international regulations.
Rats were exposed to chronic hypoxia (10% O2) in a ventilated chamber (500-liter volume, Flufrance, Cachan, France). To establish the hypoxic environment, the chamber was flushed with a mixture of room air and nitrogen, and the gas was recirculated. The environment within the chamber was monitored using an oxygen analyzer (Oxiquant M, EnviTeC—Wismar, Germany). Carbon dioxide was removed by self-indicating soda lime granules. Excess humidity was prevented by cooling of the recirculation circuit. The chamber temperature was maintained at 22-24° C. The chamber was opened every other day for 1 hour to clean the cages and replenish food and water supplies. Normoxic control rats were kept in the same room with identical light-dark cycle. Rats exposed to chronic hypoxia were randomly assigned to three groups (8-10 animals per group): the first group received Roflumilast at 0.5 mg kg^−1 d^−1, the second group received Roflumilast at 1.5 mg kg^−1 d^−1, the third group received vehicle (methocel). A group not exposed to hypoxia served as control. Roflumilast or vehicle were administered once daily by gavage over 15 days of exposure to hypoxia.
(§3) At the end of the treatment period rats were anaethesized with sodium pentobarbital (60 mg/kg, i.p.). A polyvinyl catheter was introduced into the right jugular vein and pushed through the right ventricle into the pulmonary artery. Another polyethylene catheter was inserted into the right carotid artery. After measurement of pulmonary (PAP) and systemic arterial pressures (SAP), the thorax was opened and the left lung immediately removed and frozen in liquid nitrogen. The heart was dissected and weighed for calculation of the right ventricular hypertrophy index (ratio of right ventricular free wall weight over sum of septum plus left ventricular free wall weight; RV/LV+S). The right lung was fixed in the distended state with formalin buffer. After routine processing and paraffin embedding, multiple sections from each lobe were stained with haemotoxylin and eosin. In each rat, 60 intraacinar arteries were analyzed and categorized as muscular (fully or partially) or nonmuscular to assess the degree of muscularization. In addition, intraacinar fully muscularized arteries were evaluated for measurements of medial wall thickness which was calculated and expressed as follows: index (%)=(External diameter−internal diameter)/External diameter×100%.
(§4) The data are expressed as means±SEM. A nonparametric Mann-Whitney test was used for comparisons between two groups. Comparisons of data at various times after MCT injection or of various treatment groups were performed using a nonparametric Kruskal-Wallis test followed by Dunn's test when significant. To compare the degree of pulmonary vessels muscularization between groups, we used a non parametric Mann-Whitney or a Kruskal-Wallis test after ordinal classification of the vessels as non muscular, partially muscular, or fully muscular.

In series [2] the test system is monocrotaline (MCT)-induced pulmonary arterial hypertension in rats (curative approach). The series is described as follows: Monocrotaline (MCT)-induced pulmonary hypertension in rats, curative approach (treatment day 21 to day 42). As for the experimental part:
(§5) Rats were randomly assigned to three groups (8-10 animals in each group): two groups received Roflumilast 0.5 and 1.5 mg kg^−1 d^−1, respectively; and one group received vehicle. In the preventive treatment paradigm Roflumilast or vehicle were given once daily by gavage for 21 days starting immediately after a single subcutaneous injection of MCT (60 mg kg^−1). A group not receiving MCT served as control. In a curative approach rats were left untreated for 21 days following MCT (60 mg/kg s.c.) and than randomly divided into two groups, one received roflumilast (1.5 mg/kg/d) p.o. and the other vehicle, from day 21 to day 42.
as §3, §4
In a curative approach Roflumilast (1.5 mg/kg/d) p.o. or vehicle were administered beginning at day 21 following MCT i.e. when pulmonary vascular remodeling and consequently augmented PAP and right ventricular hypertrophy were manifest. After another 3 weeks (i.e. at day 42) PAP was measured and rats were sacrificed to assess RV/LV+S ratio and muscularization of distal pulmonary arteries.

In series [3] the test system is monocrotaline (MCT)-induced pulmonary arterial hypertension in rats. The series is described as follows: Monocrotaline (MCT)-induced pulmonary hypertension in rats, preventive treatment paradigm. As to conditions: for PAP: mean ± SEM; for Muscularization: distal pulmonary arteries; for RV/LV + S: right ventricular hypertrophy index. As for the experimental part: as §1, §2, §5, §3, §4

Where [4] appears, read: Hypoxia 15 days + 0.5 mg/kg Roflumilast once daily by gavage.
The mark [5] stands for this setting: Hypoxia 15 days + 1.5 mg/kg Roflumilast once daily by gavage.
[6] abbreviates: Day 42, Roflumilast 1.5 mg/kg/d p.o. starting day 21 after MCT.
Where [7] appears, read: MCT + 0.5 mg/kg Roflumilast for 21 days.
The mark [8] stands for this setting: MCT + 1.5 mg/kg Roflumilast for 21 days.
[9] abbreviates: conclusion for pulmonary hypertension triggered by hypoxia or monocrotaline in rats.

Each structure is given as a SMILES string. Like-named read-outs stand apart in the source and are kept apart here.

For the compound `O=C(Nc1c(Cl)cncc1Cl)c1ccc(OC(F)F)c(OCC2CC2)c1` [Roflumilast, 3-cyclopropyl-methoxy-4-difluoromethoxy-N-(3,5-dichloropyrid-4-yl)benzamide], the PAP in series [1] (setting [4]) was found to be 28 ± 1.8 mm Hg; in series [1] (setting [5]) it was 25.5 ± 1.8 mm Hg; in series [2] (setting [6]), 23.6 ± 0.7 mmHg; in series [3] (MCT 60 mg/kg s.c. + 0.5 mg/kg Roflumilast once daily by gavage for 21 days), 29.3 ± 1.3 mm Hg; in series [3] (MCT 60 mg/kg s.c. + 1.5 mg/kg Roflumilast once daily by gavage for 21 days), 21.4 ± 2.0 mm Hg. The “RV/LV + S” value was determined as 37.8 ± 2.3% in series [1] (setting [4]); 30.5 ± 0.8% in series [1] (setting [5]); 33.8 ± 0.9% in series [2] (setting [6]); 38.9 ± 1.6% in series [3] (setting [7]); 31.3 ± 1.8% in series [3] (setting [8]). Moreover, the Muscularization is recorded as 31.8 ± 2% in series [1] (Hypoxia 15 days + 0.5 mg/kg Roflumilast); 18.5 ± 2% in series [1] (Hypoxia 15 days + 1.5 mg/kg Roflumilast); 36.4 ± 2.4% in series [2] (Day 42, Roflumilast 1.5 mg/kg/d p.o. starting day 21 after MCT, distal pulmonary arteries); 62.7 ± 5.4% in series [3] (setting [7]); 30.3 ± 8.2% in series [3] (setting [8]). Further, the “survival rate (animals alive at day 42)” value in series [2] (Roflumilast 1.5 mg/kg/d from day 21, 17 of 24 rats, vehicle 54%) is 71%. The “reduction of the proportion of fully muscularized arterioles” value in series [2] (at day 42, Roflumilast 1.5 mg/kg/d from day 21) is reported as more than 50%. In addition, the “Medial wall thickness index of the fully muscularized pulmonary arterioles” value in series [2] (at day 42, Roflumilast 1.5 mg/kg/d from day 21, vehicle 52±4%) is listed as 18±2%. Also, the “ratio of completely obliterated arterioles” value in series [2] (at day 42, Roflumilast 1.5 mg/kg/d from day 21, vehicle 66±3%) stood at 30±5%. Besides, the heart rate result in series [3] (setting [9]) is reported as “unaffected”. For the same compound, the systemic arterial pressure entry in series [3] (setting [9]) is “unaffected”.

For the origin of these results see US8648100B2, “Roflumilast for the treatment of pulmonary hypertension” (Takeda GmbH, priority 2005, dated 2014).
